Measured values from ChEMBL document CHEMBL1201862, “PubChem BioAssay data set” (2004).
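Tested at 5 concentrations; 48 h exposure; 96-well plates; endpoints linearly interpolated, else capped at highest concentration. At the GI50, growth is halved.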 Calls of active or inactive are those of the source. Rule as the data show it: active = GI50 up to about 1.1 µM and inactive = higher.

How the values were obtained:
Assay in all cases: NCI tumour cell line growth inhibition, 48 h
[1] = system: HCT-15
[2] = system: PC-3
[3] = system: HCT-116
[4] = system: U-251
[5] = system: RXF 393
[6] = system: HCC 2998
[7] = system: UACC-62
[8] = system: UO-31
[9] = system: Malme-3M
[10] = system: 786-0
[11] = system: CCRF-CEM
[12] = system: M14
[13] = system: MDA-N
[14] = system: OVCAR-4
[15] = system: T47D
[16] = system: SK-MEL-5
[17] = system: OVCAR-5
[18] = system: SN12C
[19] = system: COLO 205
[20] = system: K562
[21] = system: NCI/ADR-RES
[22] = system: SK-OV-3
[23] = system: LOX IMVI
[24] = system: SNB-75
[25] = system: HL-60
[26] = system: EKVX
[27] = system: BT-549
[28] = system: OVCAR-8
[29] = system: TK-10
[30] = system: SF-539
[31] = system: SNB-19
[32] = system: SF-295
[33] = system: MDA-MB-435
[34] = system: Hs-578T
[35] = system: SW-620
[36] = system: MDA-MB-231
[37] = system: SR
[38] = system: A498
[39] = system: SK-MEL-2
[40] = system: IGROV-1
[41] = system: KM12
[42] = system: NCI-H23
[43] = system: OVCAR-3
[44] = system: ACHN
[45] = system: MCF7
[46] = system: NCI-H226
[47] = system: A549
[48] = system: HT-29
[49] = system: DU-145
[50] = system: MOLT-4
[51] = system: HOP-62
[52] = system: CAKI-1
[53] = system: NCI-H460
[54] = system: UACC-257
[55] = system: SF-268
[56] = system: SK-MEL-28
[57] = system: NCI-H522
[58] = system: RPMI-8226

`CCOC(=O)C1(C(=O)OCC)OC(C)=NC1(C(=O)OC)C(=O)OC` was tested, and the GI50 [1] was over 100 µM, the GI50 [2] was > 100 µM (inactive) and the GI50 [3] was > 100 µM (inactive). For the same molecule, the GI50 [4] was > 100 µM (inactive), the GI50 [5] was > 100 µM (inactive) and the GI50 [6] was > 100 µM (inactive). The GI50 [7] was > 100 µM (inactive), the GI50 [8] was > 100 µM (inactive) and the GI50 [9] was > 100 µM (inactive). For the same molecule, the GI50 [10] was > 100 µM (inactive), the GI50 [11] was > 100 µM (inactive) and the GI50 [12] was > 100 µM (inactive). The GI50 [13] was > 100 µM (inactive), the GI50 [14] was > 100 µM (inactive) and the GI50 [15] was > 100 µM (inactive). The GI50 [16] was > 53.7 µM (inactive), the GI50 [17] was > 100 µM (inactive) and the GI50 [18] was > 100 µM (inactive). The GI50 [19] was > 100 µM (inactive), the GI50 [20] was > 100 µM (inactive) and the GI50 [21] was > 100 µM (inactive). The GI50 [22] was > 100 µM (inactive), the GI50 [23] was > 100 µM (inactive) and the GI50 [24] was > 32.5 µM (inactive). For the same molecule, the GI50 [25] was 1.15 µM (inactive), the GI50 [26] was > 26.2 µM (inactive) and the GI50 [27] was > 31.6 µM (inactive). The GI50 [28] was > 100 µM (inactive), the GI50 [29] was > 100 µM (inactive) and the GI50 [30] was > 100 µM (inactive). For the same molecule, the GI50 [31] was > 100 µM (inactive), the GI50 [32] was > 100 µM (inactive) and the GI50 [33] was > 100 µM (inactive). For the same molecule, the GI50 [34] was > 100 µM (inactive), the GI50 [35] was > 100 µM (inactive) and the GI50 [36] was > 100 µM (inactive). The GI50 [37] was > 27.7 µM (inactive), the GI50 [38] was > 100 µM (inactive) and the GI50 [39] was > 100 µM (inactive). For the same molecule, the GI50 [40] was > 100 µM (inactive), the GI50 [41] was > 100 µM (inactive) and the GI50 [42] was > 100 µM (inactive). The GI50 [43] was > 75.3 µM (inactive), the GI50 [44] was > 100 µM (inactive) and the GI50 [45] was > 61.5 µM (inactive). For the same molecule, the GI50 [46] was > 62.5 µM (inactive), the GI50 [47] was > 100 µM (inactive) and the GI50 [48] was > 100 µM (inactive). For the same molecule, the GI50 [49] was > 100 µM (inactive), the GI50 [50] was > 87.1 µM (inactive) and the GI50 [51] was > 100 µM (inactive). For the same molecule, the GI50 [52] was > 100 µM (inactive), the GI50 [53] was > 100 µM (inactive) and the GI50 [54] was > 100 µM (inactive). The GI50 [55] was > 100 µM (inactive) and the GI50 [56] was > 100 µM (inactive).
With `O=Cc1ccc(OCc2cccc(COc3ccc(/C=N\Nc4ccc([N+](=O)[O-])cc4[N+](=O)[O-])cc3)n2)cc1` the GI50 [1] was over 100 µM, the GI50 [2] was > 100 µM (inactive) and the GI50 [3] was > 100 µM (inactive). The GI50 [4] was 63.5 µM (inactive), the GI50 [5] was 43.2 µM (inactive) and the GI50 [6] was > 100 µM (inactive). For the same molecule, the GI50 [7] was > 100 µM (inactive), the GI50 [8] was > 100 µM (inactive) and the GI50 [9] was > 100 µM (inactive). For the same molecule, the GI50 [10] was > 100 µM (inactive), the GI50 [11] was 55.1 µM (inactive) and the GI50 [12] was > 100 µM (inactive). The GI50 [13] was > 100 µM (inactive), the GI50 [14] was > 100 µM (inactive) and the GI50 [15] was > 100 µM (inactive). The GI50 [16] was > 100 µM (inactive), the GI50 [17] was > 100 µM (inactive) and the GI50 [18] was > 100 µM (inactive). The GI50 [19] was > 100 µM (inactive), the GI50 [20] was > 100 µM (inactive) and the GI50 [21] was > 100 µM (inactive). For the same molecule, the GI50 [23] was > 100 µM (inactive), the GI50 [25] was > 100 µM (inactive) and the GI50 [26] was > 100 µM (inactive). For the same molecule, the GI50 [27] was > 100 µM (inactive), the GI50 [28] was 61 µM (inactive) and the GI50 [29] was > 100 µM (inactive). The GI50 [31] was > 100 µM (inactive), the GI50 [32] was > 100 µM (inactive) and the GI50 [33] was > 100 µM (inactive). For the same molecule, the GI50 [34] was > 100 µM (inactive), the GI50 [35] was > 100 µM (inactive) and the GI50 [36] was 43.6 µM (inactive). The GI50 [37] was 22.1 µM (inactive), the GI50 [57] was > 100 µM (inactive) and the GI50 [38] was > 100 µM (inactive). For the same molecule, the GI50 [39] was 89.5 µM (inactive), the GI50 [40] was > 100 µM (inactive) and the GI50 [41] was > 100 µM (inactive). The GI50 [42] was > 100 µM (inactive), the GI50 [43] was > 100 µM (inactive) and the GI50 [44] was > 100 µM (inactive). For the same molecule, the GI50 [45] was > 100 µM (inactive), the GI50 [46] was > 100 µM (inactive) and the GI50 [47] was > 100 µM (inactive). The GI50 [48] was > 100 µM (inactive), the GI50 [58] was > 100 µM (inactive) and the GI50 [49] was > 100 µM (inactive). The GI50 [50] was 33.9 µM (inactive), the GI50 [51] was 19.6 µM (inactive) and the GI50 [52] was > 100 µM (inactive). For the same molecule, the GI50 [53] was > 100 µM (inactive), the GI50 [54] was > 100 µM (inactive) and the GI50 [55] was > 100 µM (inactive). The GI50 [56] was > 100 µM (inactive).
In the case of `c1ccc(NNC2=NCCN2)cc1`, the GI50 [1] is reported as over 100 µM, the GI50 [2] is reported as > 100 µM (inactive) and the GI50 [3] is reported as > 100 µM (inactive). The GI50 [4] was > 100 µM (inactive), the GI50 [7] was > 100 µM (inactive) and the GI50 [8] was > 100 µM (inactive). The GI50 [10] was > 100 µM (inactive), the GI50 [11] was > 100 µM (inactive) and the GI50 [12] was > 100 µM (inactive). For the same molecule, the GI50 [13] was > 100 µM (inactive), the GI50 [14] was > 100 µM (inactive) and the GI50 [15] was > 100 µM (inactive). The GI50 [16] was > 100 µM (inactive), the GI50 [17] was > 100 µM (inactive) and the GI50 [18] was > 100 µM (inactive). For the same molecule, the GI50 [19] was > 100 µM (inactive), the GI50 [20] was > 100 µM (inactive) and the GI50 [21] was > 100 µM (inactive). For the same molecule, the GI50 [22] was > 100 µM (inactive), the GI50 [23] was > 100 µM (inactive) and the GI50 [24] was > 100 µM (inactive). For the same molecule, the GI50 [25] was > 100 µM (inactive), the GI50 [26] was > 100 µM (inactive) and the GI50 [27] was > 100 µM (inactive). The GI50 [28] was > 100 µM (inactive), the GI50 [29] was > 100 µM (inactive) and the GI50 [30] was > 100 µM (inactive). The GI50 [31] was > 100 µM (inactive), the GI50 [32] was 2.75 µM (inactive) and the GI50 [33] was > 100 µM (inactive). The GI50 [34] was > 100 µM (inactive), the GI50 [35] was > 100 µM (inactive) and the GI50 [36] was > 100 µM (inactive). For the same molecule, the GI50 [37] was > 100 µM (inactive), the GI50 [57] was > 100 µM (inactive) and the GI50 [38] was > 100 µM (inactive). For the same molecule, the GI50 [39] was > 100 µM (inactive), the GI50 [40] was > 100 µM (inactive) and the GI50 [41] was > 100 µM (inactive). For the same molecule, the GI50 [42] was > 100 µM (inactive), the GI50 [43] was > 100 µM (inactive) and the GI50 [44] was > 100 µM (inactive). For the same molecule, the GI50 [45] was > 100 µM (inactive), the GI50 [46] was > 100 µM (inactive) and the GI50 [47] was > 100 µM (inactive). The GI50 [48] was > 100 µM (inactive), the GI50 [58] was > 100 µM (inactive) and the GI50 [49] was > 100 µM (inactive). The GI50 [50] was > 100 µM (inactive), the GI50 [51] was > 100 µM (inactive) and the GI50 [52] was > 100 µM (inactive). The GI50 [53] was > 100 µM (inactive), the GI50 [54] was > 100 µM (inactive) and the GI50 [55] was > 100 µM (inactive). The GI50 [56] was > 100 µM (inactive).
